Measured values from patent US20140194479A1, “COMPOSITIONS AND METHODS FOR TREATING MOOD DISORDERS” (priority 2011, published 2014).

Tests used:
[1] = test system: histone H3 and H4 proteins in the forebrain neocortex; experiment: Western blotting of histone proteins, forebrain neocortex of SFR Balb/c mice; format: in vivo
Method: (§1) Forebrain neocortical tissue was dissected in phosphate-buffered saline supplemented with protease inhibitors and homogenized in 0.5% SDS, protease inhibitor cocktail (Complete Mini, Roche, Germany), 10 mM EDTA, and 10 mM Tris HCl (pH 8.0). Protein concentration was measured using the NanoDrop instrument (Thermo Scientific, Wilmington, Del.).
(§2) For loading controls, an anti-GAPDH antibody was used (Abcam, Cambridge, Mass.; 1:100,000). After incubation with primary antibody, membranes were incubated with a horseradish-peroxidase-conjugated secondary antibody (anti-rabbit IgG-HRP; Sigma, St. Louis, Mo.; dilution: 1:5,000) for 1 hour at room temperature. SuperSignal West Dura (Thermo Scientific, Waltham, Mass.) was used to visualize bound antigen. Optical densities (OD) of histone protein signals were determined using NIH ImageJ software. ODs were normalized to corresponding ODs obtained for GAPDH.

[2] = test system: histone H3 and H4 proteins in the forebrain neocortex; experiment: Western blotting of histone proteins, forebrain neocortex of IMS Balb/c mice; format: in vivo
Method: as §1, §2

SFR Balb/c mice [3] = experiment: Elevated Plus Maze (EPM), SFR Balb/c mice; format: in vivo; conditions: for time spent in the open arms of the EPM: SFR Balb/c treated during adolescence (P35 to P60), vs non-treated controls
SFR Balb/c mice [4] = experiment: Forced Swim Test (FST), SFR (non-stressed) Balb/c mice; format: in vivo; conditions: for immobility in the FST: SFR Balb/c treated during adolescence (P35 to P60), vs SFR controls
Method: (§4) For chronic drug treatment, drugs were administered via the drinking water. […] Suberoylanidide hydroxamic acid (SAHA) was dissolved in DMSO and subsequently diluted about 100 fold in water containing 0.2% sucrose. Mice consumed about 200 mg/kg/day of SAHA (Butler et al., 2000) and their controls received drinking water supplemented with the same amount of DMSO and sucrose that SAHA-treated animals received. […] In these experiments, mice received a single intraperitoneal injection of SAHA (100 mg/kg) at P35, followed by SAHA treatment via the drinking water for the next 3 days.
Three days later, mice were tested in a modified version of Forced Swim Test (FST), i.e., a 6 minute exposure on day 1 followed by another 6 minute exposure on day 2.

[5] = test system: 5-HT/5-HIAA levels in the forebrain neocortex; conditions: 300 mg/kg twice per day, within 5 days; Gurevich et al., 2002; cited from earlier work
HDAC3 [6] = biological target: T1, HDAC3 (Homo sapiens, UniProt O15379); conditions: at concentration below 10^−4M; Ito et al., 2002; cited from earlier work
Target sequence in this assay (O15379 whole entry, species assumed): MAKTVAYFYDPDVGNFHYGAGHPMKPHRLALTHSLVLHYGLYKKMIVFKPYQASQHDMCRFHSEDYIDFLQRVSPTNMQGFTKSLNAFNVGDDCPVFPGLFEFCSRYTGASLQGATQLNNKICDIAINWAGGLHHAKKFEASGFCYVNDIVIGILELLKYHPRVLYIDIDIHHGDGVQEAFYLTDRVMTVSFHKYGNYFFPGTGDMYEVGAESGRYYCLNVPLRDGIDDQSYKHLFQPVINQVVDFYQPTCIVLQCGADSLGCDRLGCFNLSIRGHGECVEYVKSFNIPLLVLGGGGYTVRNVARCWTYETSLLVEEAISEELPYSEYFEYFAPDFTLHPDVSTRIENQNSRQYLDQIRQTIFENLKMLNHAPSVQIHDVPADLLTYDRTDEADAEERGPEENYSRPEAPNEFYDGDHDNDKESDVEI

IMS Balb/c mice [7] = experiment: Elevated Plus Maze (EPM), IMS Balb/c mice
From the text: (§5) Briefly, offspring of first-time mothers were separated from their dam daily for three hours (from 1:00 to 4:00 P.M.) from postnatal age day 2 (P2) until P15. Control animals were standard facility-reared (SFR) pups of first-time mothers. Housing and husbandry conditions were identical for IMS and SFR mice. Pups were weaned at P28 and group housed by sex (five animals randomly selected from at least five different litters). Since this study involved behavioral tests of emotive phenotypes that are sensitive to differences in the estrus cycle of females, all studies disclosed below were conducted on male mice.
as §4
Their times spent in open arms and the number of arm crossings was recorded. Three days later, mice were tested in a modified version of Forced Swim Test (FST), i.e., a 6 minute exposure on day 1 followed by another 6 minute exposure on day 2.

adenosine receptors = conditions: at concentration below 10^−4M; Ito et al., 2002; cited from earlier work
[8] = Plasma concentration of theophylline under drinking water treatment; conditions: over 24 hours of theophylline-supplemented (10^−4M) drinking water consumption
Method: as §4

IMS Balb/c mice [9] = experiment: Forced Swim Test (FST), IMS Balb/c mice
From the text: as §5, §4
Their times spent in open arms and the number of arm crossings was recorded. […]

HDAC1 = HDAC1 (Homo sapiens, UniProt Q13547); conditions: at concentration below 10^−4M; Ito et al., 2002; cited from earlier work
phosphodiesterases = conditions: at concentration below 10^−4M; Ito et al., 2002; cited from earlier work
[10] = test system: aCH4K12 at BDNF promotors; experiment: ChIP/real-time PCR, aCH4K12 enrichment at BDNF promotors; format: in vivo, Balb/c mice; conditions: non-stressed Balb/c treated P35 to P59; FIG. 15B
From the text: (§3) Data in (FIG. 15A) are mean±sem of 8 animals per group. Data in (FIG. 15B) and (FIG. 15C) were obtained from ChIP/real-time PCR measures (mean±sem; n=4/group) using antibodies directed against aCH4K12 (FIG. 15B) and Pol II (FIG. 15C). […] Data in (FIG. 15D) are from RT-real-time PCR measures of BDNF mRNA levels (mean±sem, n=5/group). […] All data were compared by ANOVA and significant differences between groups were resolved post hoc using Tukey Kramer multiple comparisons as indicated. In all studies, male and female mice were used.

HDAC mRNA = experiment: Real-time RT-PCR of HDAC mRNA, forebrain neocortex of IMS Balb/c mice
From the text: as §5, §4

[11] = test system: histone H3 and H4 proteins in the forebrain neocortex; experiment: Western blotting of histone proteins, forebrain neocortex of C57BI/6 mice; format: in vivo; conditions: C57BI/6 mice at P60, IMS-fluoxetine, OD normalized to GAPDH, mean ± sem
Method: as §1, §2

SFR Balb/c mice [12] = conditions: adolescent treatment; Bhansali et al., 2007; cited from earlier work
[13] = test system: RNA Polymerase II (Pol II) at BDNF promotors; experiment: ChIP/real-time PCR, Pol II enrichment at BDNF promotors; format: in vivo, Balb/c mice; conditions: non-stressed Balb/c treated P35 to P59; FIG. 15C
From the text: as §3

HDAC3 [14] = biological target: T1, HDAC3; conditions: read-out: IC50 HDAC 3; cited from earlier work
Target sequence in this assay (O15379 whole entry, species assumed): as above
Target sequence in this assay (Q9Y618 395-489 partner limits assumed, species assumed): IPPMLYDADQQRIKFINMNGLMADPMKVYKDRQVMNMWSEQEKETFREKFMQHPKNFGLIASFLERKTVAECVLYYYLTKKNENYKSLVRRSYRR

[15] = test system: extracellular 5-HT levels; conditions: McEwen et al., 2010, Mennini et al., 1987; cited from earlier work
[16] = SFR Balb/c, adolescent treatment
[17] = IMS Balb/c treated between P21 and P35
[18] = IMS Balb/c, adolescent fluoxetine vs non-treated IMS
[19] = IMS Balb/c, adolescent treatment, compared to non-treated IMS Balb/c mice
[20] = IMS Balb/c, fluoxetine during adolescence, OD normalized to GAPDH, mean ± sem
[21] = IMS Balb/c, treatment P35 to P60, vs non-treated IMS
[22] = IMS-fluoxetine Balb/c at P60, mean±sem
[23] = SFR Balb/c, fluoxetine alone or with SAHA, OD normalized to GAPDH, mean ± sem

Chain of HDAC1 (Q13547 whole entry, species assumed): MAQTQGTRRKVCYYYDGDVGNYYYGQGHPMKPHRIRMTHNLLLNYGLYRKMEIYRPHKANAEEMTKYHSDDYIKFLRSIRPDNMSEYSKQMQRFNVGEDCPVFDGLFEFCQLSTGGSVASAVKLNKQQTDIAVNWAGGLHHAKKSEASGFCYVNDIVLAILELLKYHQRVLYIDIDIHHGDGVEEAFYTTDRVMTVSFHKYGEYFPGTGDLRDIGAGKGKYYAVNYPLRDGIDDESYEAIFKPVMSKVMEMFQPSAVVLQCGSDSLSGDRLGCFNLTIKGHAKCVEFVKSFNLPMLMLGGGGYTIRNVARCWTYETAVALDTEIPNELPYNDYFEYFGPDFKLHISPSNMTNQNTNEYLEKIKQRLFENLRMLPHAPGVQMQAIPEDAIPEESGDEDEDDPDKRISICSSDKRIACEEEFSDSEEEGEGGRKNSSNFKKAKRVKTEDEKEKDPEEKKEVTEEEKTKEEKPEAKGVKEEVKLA

Nc1ccccc1NC(=O)c1ccc(CNC(=O)OCc2cccnc2)cc1 [MS-275]
effect on acetylated H4K5 expression [1, 16]: increased | effect on acetylated H4K8 expression [1, 16]: increased | effect on acetylated H4K12 expression [1, 16]: increased

O=C(CCCCCCC(=O)Nc1ccccc1)NO [SAHA, suberoylanilide hydroxamic acid]
effect on development of the adult epigenetic phenotype [2, 17]: did not prevent | effect on the decreased acetylation of histone H4 proteins [2, 17]: prevented | percentage of open arm entries in the EPM (SFR Balb/c mice [3]; SFR Balb/c treated during adolescence): lowest percentage | time spent in the open arms of the EPM (SFR Balb/c mice [3]): significantly less time | immobility in the FST (SFR Balb/c mice [4]): significantly increased

N[C@@H](Cc1ccc(Cl)cc1)C(=O)O (racemic) [pCPA, para-chlorophenylalanine]
reduction of 5-HT/5-HIAA levels in the forebrain neocortex [5]: about 80%

Cn1c(=O)c2[nH]cnc2n(C)c1=O [theophylline]
time spent in the open arms of the EPM (SFR Balb/c mice [3]): did not differ | activation of HDAC3 (HDAC3 [6]): activates | total time spent in open arms of the EPM (IMS Balb/c mice [7]; IMS Balb/c treated P35 to P60, vs non-treated IMS mice): significantly less time | total number of arm crossings in the EPM (IMS Balb/c mice [7]; SFR controls, IMS and treated IMS Balb/c): no significant difference | percentages of crossings into open arms (IMS Balb/c mice [7]; treated IMS Balb/c compared with SFR controls): did not reach statistical significance | antagonist effect on adenosine receptors (adenosine receptors): no antagonist effect | plasma concentrations of theophylline [8]: below 10^−4 M | total immobility time in the FST (IMS Balb/c mice [9]; IMS Balb/c treated P35 to P60, greater immobility of IMS mice): significantly potentiated | number of passive episodes in the FST (IMS Balb/c mice [9]; SFR controls, IMS and treated IMS mice): no significant differences | activation of HDAC1 (HDAC1): activates | inhibition of phosphodiesterases (phosphodiesterases): exerts no | immobility in the FST (SFR Balb/c mice [4]): did not differ

CNCCC(Oc1ccc(C(F)(F)F)cc1)c1ccccc1 (centres unmarked) [fluoxetine]
enrichment of aCH4K12 at BDNF promotor P1 [10]: higher enrichment | enrichment of aCH4K12 at BDNF promotor P3 [10]: higher enrichment | increase in acetylated H3K9 protein [2, 18]: 55% | increase in acetylated H4K12 protein [2, 18]: 230% | increase in total histone H3 protein expression [2, 18]: 60% | increase in total histone H4 protein expression [2, 18]: 13% | H3K4me3 [2, 19]: Increased | acH3K9 [2, 19]: Increased | acH4K5 [2, 19]: Increased | acH4K12 [2, 19]: Increased | acK4K8 [2, 19]: Increased | H3K4me3 expression [2, 20]: 0.94 ± 0.07 | H3K9me2 expression [2, 20]: 0.93 ± 0.03 | H3 expression [2, 20]: 1.31 ± 0.03 | acH3K9 expression [2, 20]: 1.21 ± 0.02 | acH4K5 expression [2, 20]: 0.94 ± 0.02 | acH4K8 expression [2, 20]: 1.51 ± 0.06 | acH4K12 expression [2, 20]: 1.16 ± 0.04 | acH4K16 expression [2, 20]: 1.04 ± 0.04 | H4 expression ([2]; IMS Balb/c, fluoxetine during adolescence, OD on Western blots normalized to GAPDH, mean ± sem, n = 5): 0.97 ± 0.05 | effect on acetylated H4K12 protein expression [2, 21]: significantly increased | effect on acetylated histone H3K9 expression [2, 21]: significantly increased | effect on acetylated histone H4K8 expression [2, 21]: significantly increased | effect on dimethylated histone H3 protein expression [2, 21]: did not change | effect on total H3 protein expression [2, 21]: increased | effect on total H4 protein expression [2, 21]: increased | effect on trimethylated histone H3 protein expression [2, 21]: increased | effect on HDAC mRNA expression levels (HDAC mRNA; IMS Balb/c, treatment P35 to P60, nine HDAC mRNAs): did not alter | HDAC1 mRNA expression, real-time PCR ½^ΔCt (HDAC mRNA; [22]): 0.011±0.0006 | HDAC2 mRNA expression, real-time PCR ½^ΔCt (HDAC mRNA; [22]): 0.0016±0.0001 | HDAC3 mRNA expression, real-time PCR ½^ΔCt (HDAC mRNA; [22]): 0.055±0.004 | HDAC4 mRNA expression, real-time PCR ½^ΔCt (HDAC mRNA; [22]): 0.011±0.002 | HDAC5 mRNA expression, real-time PCR ½^ΔCt (HDAC mRNA; [22]): 0.044±0.006 | HDAC7 mRNA expression, real-time PCR ½^ΔCt (HDAC mRNA; [22]): 0.011±0.001 | HDAC8 mRNA expression, real-time PCR ½^ΔCt (HDAC mRNA; [22]): 0.0035±0.0004 | HDAC9 mRNA expression, real-time PCR ½^ΔCt (HDAC mRNA; [22]): 0.001±0.0002 | HDAC10 mRNA expression, real-time PCR ½^ΔCt (HDAC mRNA; [22]): 0.0074±0.0006 | H3K4me3 expression [1, 23]: 1.12 ± 0.02 | H3K9me2 expression [1, 23]: 1.08 ± 0.04 | H3 expression [1, 23]: 0.96 ± 0.01 | acH3K9 expression [1, 23]: 0.86 ± 0.03 | acH4K5 expression [1, 23]: 0.45 ± 0.06 | acH4K8 expression [1, 23]: 0.86 ± 0.06 | acH4K12 expression [1, 23]: 0.80 ± 0.03 | acH4K16 expression [1, 23]: 0.70 ± 0.06 | H4 expression ([1]; SFR Balb/c, fluoxetine alone or with SAHA, OD on Western blots normalized to GAPDH, mean ± sem, n = 5): 1.10 ± 0.04 | effect on histone H3/H4 expression ([1]; SFR mice, adolescent fluoxetine 16 mg/kg/day vs vehicle, FIG. 7): does not alter | time spent in the open arms of the EPM (SFR Balb/c mice [3]): did not differ | H3K4me3 expression [11]: 0.94 ± 0.02 | H3K9me2 expression [11]: 0.89 ± 0.03 | H3 expression [11]: 0.98 ± 0.02 | acH3K9 expression [11]: 1.00 ± 0.03 | H4 expression ([11]; n = 5): 1.00 ± 0.03 | FST behavior of SFR controls (SFR Balb/c mice [12]): had no effect | increase of density of Pol II associated with the P3 promotor of the BDNF gene [13]: not in fluoxetine-only treated mice | immobility in the FST (SFR Balb/c mice [4]): did not differ | immobility in the forced swim test (FST), antidepressant-like effects (SFR Balb/c mice [4]; non-stressed Balb/c treated P35 to P59, vs vehicle and fluoxetine-only, FIG. 15A): not achieved

CCCC(=O)[O-].[Na+] [sodium butyrate]
IC50 (HDAC3 [14]): 700 µM

CN1c2ccccc2C(NCCCCCCC(=O)O)c2ccc(Cl)cc2S1(=O)=O (centres unmarked) [tianeptine]
extracellular 5-HT levels [15]: without marked changes
